A value given as a limit tells only on which side of the number the result lay.

In the series the test system is obese C57BL/6 mice. Briefly: Plasma liver markers after 30-day chronic treatment. Type of series: in vivo, mouse. An excerpt:
In order to determine the long-term effects of the molecules of interest, C57BL/6 mice made obese by means of a high-sucrose, high-fat diet (HSHF: 30% crude fat, 33.5% carbohydrates; ref. E15126-34; ref. E15126-34, SSNIFF, Soest, Germany) for 20 weeks. These mice then received daily an i.p. injection of rimonabant, JM-00.266 (i.e., compound IA) or vehicle for a period of 30 days. In parallel, weight and food intake were monitored every two days following the beginning of the treatment.
Total cholesterol, triglycerides and hepatic markers were assayed by a Dimension Vista Intelligent Lab System (Siemens, Saint-Denis, France) using suitable reagents.

[1] abbreviates: obese mice, 10 mg/kg i.p. daily, 30 days.

On to `CSc1ccc(C2C(N3C(=O)c4ccccc4C3=O)C(=O)N2c2ccc(SC)cc2)cc1` (stereo not drawn) [JM-00.266, trans-1,4-di-(4-methylthiophenyl)-3-N-phthaloyl-azetidine-2-one], for which the “liver damage markers compared with the control” value (30-day chronic treatment) was “does not cause an increase”. Moreover, the liver toxicity entry (chronic administration) is listed as “no liver toxicity”. Moreover, under setting [1], the ALPI plasma concentration amounted to 47.3 ± 3.6, the ALT plasma concentration amounted to 34.3 ± 10.5 U/L, the AST plasma concentration came out at 60.8 ± 13.4 U/L and the “Gamma GT plasma concentration” value is under 3 U/L. Further, the “Total bilirubin plasma concentration” value under setting [1] was under 2 µmol/L.
